Consider 7 molecules from US10966995B2, “Use of secoisolariciresinol diglucosides (SDGS) and related compounds for protection against radiation and chemical damage” (THE TRUSTEES OF THE UNIVERSITY OF PENNSYLVANIA, priority 2014, dated 2021).

Test [1] deals with calf thymus DNA. The experiment in a line: Radiation-induced calf thymus DNA fragmentation assay. The test is classed as biochemical. Conditions: for Radioprotective properties of SDG and metabolites compared / Radioprotection in calf thymus DNA fragmentation assay at low concentrations / High mol. wt. DNA form after radiation exposure: 50 Gy; for Radioprotective properties of SDG and metabolites compared: 10 μM of each agent; for Radioprotection in calf thymus DNA fragmentation assay at low concentrations: 0.5-10 μM; for High mol. wt. DNA form after radiation exposure: 25, 50, 100 and 250 μM; for Radiation-induced generation of low mol. wt. fragments: at the concentration of 5 (unit not given); for Radiation induced generation of low mol. wt. fragments: at the lowest concentration tested. How it is done: (§1) Plasmid DNA (pBR322) or calf thymus DNA samples with or without varying concentrations of SDG (R,R), SDG (S,S) and SDG (commercial) were exposed to γ-radiation with a Mark 1 cesium (Cs-137) irradiator (J. L. Shepherd, San Fernando, Calif.) at a dose rate of 1.7 Gy/min in phosphate buffered saline, pH 7.4 (PBS).
The effect of test compounds on radiation-induced strand breaks in DNA was determined using calf thymus DNA (Sigma, St. Louis, Mo.). DNA (500 ng) in PBS (pH 7.4) was mixed with varying concentrations (25-250 μM) of SDG (R,R), SDG (S,S) and SDG (commercial) and irradiated at 50 Gy for 30 min. A second series of experiments were performed at varying concentrations ranging from 0.5-10 μM. Samples were mixed with loading dye and subjected to agarose (1%) gel electrophoresis in TAE buffer (pH, 8.3) at 100 V. The gel was stained with ethidium bromide (0.5 μg/ml) for 40 min, washed for 20 min and then visualized on a UV trans-illuminator (Bio-Rad, Hercules, Calif.). The captured gel images were scanned and the density of the calf thymus DNA fragments was determined by Gel-Pro image analyzer program (Media Cybernetics, Silver Spring, Md.). The density of the low mol. wt (<6,000 bps) and the high mol. wt (>6,000 bps) fragments of calf thymus DNA was expressed as % of the total density (low mol wt.+high mol. wt.).

Test [2] has as its system human epithelial cells. The experiment in a line: BaP-induced DNA adduct formation. The following applies: given alone or in combination. The test is classed as cell-based. The text has this:
Similarly, SDG prevents genotoxic stress in human epithelial cells exposed to BaP. Exposure of cells to a potent carcinogen such as BaP, induces genotoxic stress as indicated by increased levels of p53 protein (FIG. 25). […] SDG also prevents oxidative DNA damages in human epithelial cells exposed to BaP. Exposure of cells to a potent carcinogen such as BaP, induces oxidative DNA damage as indicated by increased levels of gamma-H2AX, a marker for double-stranded DNA breaks (FIG. 26). […] Furthermore, SDG prevents DNA adduct formation in human epithelial cells exposed to BaP. Exposure of cells to a potent carcinogen such as BaP, induces the formation of DNA adducts (FIG. 27). DNA adducts are pieces of DNA covalently linked to a carcinogen and is directly linked to the development of malignancy. The DNA adduct levels is decreased by the presence of SDG or its metabolites ED and EL given alone or in combination.

The test system of test [3] is Plasmid DNA (pBR322). The experiment in a line: Plasmid DNA relaxation assay after γ-radiation. In kind it is biochemical. The following applies: for EC50: 25 Gy γ radiation, 25-250 μM tested, read-out: EC50 (effective concentration needed to prevent 50% of plasmid relaxation); for SC and OC forms of plasmid DNA: 25 Gy, 25, 50, 100 and 250 μM. How it is done: as §1
The effect of test compounds on radiation-induced strand breaks and supercoil (SC) to open coil (OC) conversion was determined using plasmid DNA (pBR322) (Life Technologies, Carlsbad, Calif.). Plasmid DNA (500 ng) in PBS (pH 7.4) was mixed with various concentrations (25-250 μM) of SDG (R,R), SDG (S,S) and SDG (commercial) and irradiated at 25 Gy in PBS. At 30 min post radiation exposure, samples were mixed with loading dye and subjected to agarose (1%) gel electrophoresis in TAE buffer (pH, 8.3) at 100 V. The gel was stained with ethidium bromide (0.5 μg/ml) for 40 min, washed for 20 min and then visualized on a UV trans-illuminator (Bio-Rad, Hercules, Calif.). The captured gel images were scanned and the density of the open coiled (OC) and super coiled (SC) plasmid DNA bands determined by Gel-doc image analyzer program. The density of the SC and OC plasmid DNA was expressed as % of the total density (OC+SC).

Test [4] can be described thus: Hypochlorite scavenging with APF/HPF fluorescent probes (sodium hypochlorite). Conditions: 0.5 μM; similar to silibinin. As to the method:
The fluorescence of ROS probes APF and HPF in PBS was measured at excitation/emission at 490 nm/515 nm in presence of hypochlorite or after γ-radiation exposure. Data is expressed as relative fluorescence units (RFU).

In test [5] the test system is calf thymus DNA. The experiment in a line: Hypochlorite-induced damage to calf thymus DNA. The test is classed as biochemical. Conditions: 0.5 mM hypochlorite; test agents 1.0 μM. As to the method: Calf thymus or plasmid DNA was incubated with hypochlorite for 2 hrs at 37° C. DNA samples were subjected to agarose (1%) gel electrophoresis and analyzed.

Consider `OC[C@H](Cc1cccc(O)c1)[C@H](CO)Cc1cccc(O)c1` [ED, enterodiol], for which, in test [1], the “Radioprotective properties of SDG and metabolites compared” value is “equipotent”. Moreover, the DNA adduct levels result in test [2] is on record as “decreased”.

As for `O=C1OC[C@H](Cc2cccc(O)c2)[C@H]1Cc1cccc(O)c1` [EL, enterolactone], in test [1], the “Radioprotective properties of SDG and metabolites compared” value is “equipotent”. In addition, the DNA adduct levels result in test [2] is recorded as “decreased”.

Regarding `COc1cc(C[C@@H](CO[C@@H]2O[C@H](CO)[C@@H](O)[C@H](O)[C@H]2O)[C@H](CO[C@@H]2O[C@H](CO)[C@@H](O)[C@H](O)[C@H]2O)Cc2ccc(O)c(OC)c2)ccc1O` [SDG (R,R), secoisolariciresinol diglucoside], in test [3], the EC50 stood at 128 µM; the “SC and OC forms of plasmid DNA” value is on record as “prevented the radiation-induced damage to plasmid DNA in a concentration-dependent manner”. In test [1], the “Radioprotection in calf thymus DNA fragmentation assay at low concentrations” value was “strong radioprotection characteristics even at low concentrations”, the “High mol. wt. DNA form after radiation exposure” value (“High mol. wt. DNA form” below) was “radioprotective properties”, the “Radiation-induced generation of low mol. wt. fragments” value was “completely prevented” and the “Radiation induced generation of low mol. wt. fragments” value is reported as “completely prevented”. The “ClO^− scavenging potency” value in test [4] is on record as “comparable potency”.

`COc1cc(C[C@H](CO[C@@H]2O[C@H](CO)[C@@H](O)[C@H](O)[C@H]2O)[C@@H](CO[C@@H]2O[C@H](CO)[C@@H](O)[C@H](O)[C@H]2O)Cc2ccc(O)c(OC)c2)ccc1O` [SDG (S,S), secoisolariciresinol diglucoside]: in test [3], the EC50 turned out to be 142 µM; the “SC and OC forms of plasmid DNA” value is “the proportion of the SC form increased and the density of OC form decreased significantly”. Further, in test [1], the “Radioprotection in calf thymus DNA fragmentation assay at low concentrations” value was “strong radioprotection characteristics even at low concentrations”, the “High mol. wt. DNA form” value is reported as “the proportion of the high mol. wt. DNA form increased significantly”, the “Radiation-induced generation of low mol. wt. fragments” value is given as “completely prevented” and the “Radiation induced generation of low mol. wt. fragments” value is given as “completely prevented”. Further, the “ClO^− scavenging potency” value in test [4] is recorded as “comparable potency”.

Consider `COc1cc(C[C@@H](CO[C@@H]2O[C@H](CO)[C@@H](O)[C@H](O)[C@H]2O)[C@H](CO[C@@H]2O[C@H](CO)[C@@H](O)[C@H](O)[C@H]2O)Cc2ccc(O)c(OC)c2)ccc1O` [SDG (commercial), Secoisolariciresinol Diglucoside], for which the EC50 in test [3] is 98.4 µM. Moreover, the “High mol. wt. DNA form” value in test [1] is listed as “radioprotective properties”. For the same molecule, the “ClO^− scavenging potency” value in test [4] is given as “comparable potency”.

Regarding `COc1cc(CC(CO)C(CO)Cc2ccc(O)c(OC)c2)ccc1O` (centres unmarked) [SECO, 2,3-bis (3-methoxy-4-hydroxybenzyl) butane-1,4-diol], the “Radioprotective properties of SDG and metabolites compared” value in test [1] is given as “equipotent”.

With `O=c1c(O)c(-c2ccc(O)c(O)c2)oc2cc(O)cc(O)c12` [quercetin], the “Hypochlorite-induced damage to genomic DNA” value in test [5] is given as “comparable”.
